In BindingDB's records for PubMed 36069713 (China Pharmaceutical University, 2022):

Assay: Agonist activity at STING in STING knockout human THP-1 cells harboring IRF-inducible luciferase reporter construct assessed as increase in relative […] unit incubated for 12 hrs by Quanti-luc reagent based assay

Compound: CC[C@H](CC(=O)c1cc2cc(OC)c(OC)cc2[se]1)C(=O)O
- EC50: > 100 µM
